We go through 33 compounds from patent US10508120B2, “TYK2 inhibitors and uses thereof” (Nimbus Lakshmi, Inc., priority 2017, dated 2019).

Bounds are passed on as bounds.

Assay [1] addresses human TYK2 (JH2domain-pseudokinase) (Homo sapiens (Human), UniProt P29597). The assay can be described thus: TYK2 JH2 Domain Binding Assay (KINOMEscan). In short, it runs like this: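 Pseudokinase domain binding was measured by qPCR of tagged, bead-retained kinase after 1 h room-temperature competition, with 0.9% DMSO and compound up to 30,000 nM in 3-fold steps. Hill-equation Kd, duplicate.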

The target in assay [2] is Tyk2 kinase domain (DH1) (Homo sapiens (Human), UniProt P29597). Kind of assay: Tyk2 Radioactive Kinase Assay. In kind it is biochemical. The conditions noted are these: compound at 10 μM, ATP 10 μM; for inhibition at 10 µM: read-out: Tyk2 JH1% Inhibition @ 10 μM. In short, it runs like this: (§1)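 Each kinase domain is incubated with test compound at 10 μM. Activity is then measured radiometrically and expressed as percent inhibition relative to uninhibited enzyme.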

Assay [3] concerns the target JAK2 kinase domain (JH1) (Homo sapiens (Human), UniProt O60674). Kind of assay: JAK2 Radioactive Kinase Assay. In kind it is biochemical. The conditions noted are these: compound at 10 μM, ATP 10 μM; for inhibition at 10 µM: read-out: JAK2 JH1% Inhibition @ 10 μM. In short, it runs like this:
as §1

Sequence of Tyk2 kinase domain (DH1) (P29597 897-1176): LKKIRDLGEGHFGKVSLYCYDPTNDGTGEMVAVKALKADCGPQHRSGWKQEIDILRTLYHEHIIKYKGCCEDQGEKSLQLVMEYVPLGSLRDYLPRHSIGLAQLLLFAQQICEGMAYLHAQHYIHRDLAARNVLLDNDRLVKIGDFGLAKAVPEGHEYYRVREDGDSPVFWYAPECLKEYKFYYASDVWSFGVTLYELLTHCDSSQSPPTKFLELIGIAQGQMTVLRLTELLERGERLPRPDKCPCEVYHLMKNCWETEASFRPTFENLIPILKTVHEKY
Sequence of human TYK2 (JH2domain-pseudokinase) (P29597 556-888): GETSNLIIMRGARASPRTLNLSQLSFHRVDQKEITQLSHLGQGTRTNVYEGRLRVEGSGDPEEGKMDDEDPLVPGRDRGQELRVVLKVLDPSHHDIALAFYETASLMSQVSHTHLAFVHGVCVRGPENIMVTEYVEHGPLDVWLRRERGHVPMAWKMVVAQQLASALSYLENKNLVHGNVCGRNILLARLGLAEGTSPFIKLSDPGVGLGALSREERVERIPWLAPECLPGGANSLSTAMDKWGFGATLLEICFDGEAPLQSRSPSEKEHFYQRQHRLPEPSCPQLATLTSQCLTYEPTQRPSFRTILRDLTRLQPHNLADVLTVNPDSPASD
Sequence of JAK2 kinase domain (JH1) (O60674 849-1124): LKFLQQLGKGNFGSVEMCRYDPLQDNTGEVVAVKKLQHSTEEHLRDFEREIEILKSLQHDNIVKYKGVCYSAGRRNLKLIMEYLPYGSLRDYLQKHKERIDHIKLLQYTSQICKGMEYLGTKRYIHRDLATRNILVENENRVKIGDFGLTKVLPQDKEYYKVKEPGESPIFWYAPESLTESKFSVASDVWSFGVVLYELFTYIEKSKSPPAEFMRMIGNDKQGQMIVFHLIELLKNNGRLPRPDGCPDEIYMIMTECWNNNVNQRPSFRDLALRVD

Broadly, the Kd is the constant that tells how readily two partners part at equilibrium. A lower Kd goes with tighter binding. The term inhibition denotes the relative decrease from the control value, in per cent. The compound `CNc1cc(Nc2cccnc2OC2CC2)nc2c(C(=O)N[C@H]3[C@@H]4COC[C@@H]43)cnn12` [I-446] yielded a dissociation constant (Kd) in assay [1] of 200 to 1000 pM. For the same compound, the inhibition at 10 µM in assay [2] and in assay [3] was under 50% throughout.

On to `[2H]C([2H])([2H])Oc1ncccc1Nc1cc(NC)n2ncc(C(=O)NC3[C@H]4COC[C@@H]34)c2n1` (stereo partly drawn) [I-447], for which the Kd in assay [1] was under 200 pM. The inhibition at 10 µM in assay [2] and in assay [3] was under 50% each time.

`CNc1cc(Nc2cccnc2OC)nc2c(C(=O)N[C@H]3CCC[C@@H]3O)cnn12` [I-449, (S)—N-((1S,2S)-2-hydroxycyclopentyl)-5-((2-methoxypyridin-3-yl)amino)-7-(methylamino) pyrazolo[1,5-a]pyrimidine-3-carboxamide] came in with a dissociation constant Kd in assay [1] of 200 to 1000 pM. Also, the inhibition at 10 µM in assay [2] and in assay [3] was under 50% in each case.

Regarding `CNc1cc(-c2nn(C(C)C)c3ncccc23)nc2c(C(=O)N[C@H]3C[C@H]3F)cnn12` [I-451], the dissociation constant Kd in assay [1] is under 200 pM. The inhibition at 10 µM in assay [2] and in assay [3] was under 50% in each case.

With `CNc1cc(-c2nn(C3CCOC3)c3ncccc23)nc2c(C(=O)N[C@H]3C[C@H]3F)cnn12` (stereo partly drawn) [I-452], in assay [1], the Kd was under 200 pM. The inhibition at 10 µM in assay [2] and in assay [3] was under 50% throughout.

`CNc1cc(Nc2cccn(CCOC3CC3)c2=O)nc2c(C(=O)NC3CC3)cnn12` [I-453] returned an equilibrium dissociation constant (Kd) in assay [1] of 200 to 1000 pM. The inhibition at 10 µM in assay [2] and in assay [3] was under 50% in each case.

Consider `CNc1cc(Nc2cccn(CCOC3CC3)c2=O)nc2c(C(=O)N[C@@H]3C[C@@H]3F)cnn12` [I-454], for which the Kd in assay [1] is under 200 pM. In addition, the inhibition at 10 µM in assay [2] and in assay [3] was under 50% in each case.

Regarding `CNc1cc(-c2nn(CCN3CCOCC3)c3ncccc23)nc2c(C(=O)NC3CC3)cnn12` [I-455], in assay [1], the Kd lay within 1000 to 10000 pM. The inhibition at 10 µM in assay [2] and in assay [3] was under 50% each time.

In assay [1], `CNc1cc(-c2nn(CCN3CCOCC3)c3ncccc23)nc2c(C(=O)N[C@H]3C[C@H]3F)cnn12` [I-456] gave a Kd of 1000 to 10000 pM. Also, the inhibition at 10 µM in assay [2] and in assay [3] was under 50% each time.

Turning to `CNc1cc(-c2nn(CCN3CCCCC3)c3ncccc23)nc2c(C(=O)NC3CC3)cnn12` [I-457], the Kd in assay [1] fell in the range of 1000 to 10000 pM. For the same compound, the inhibition at 10 µM in assay [2] and in assay [3] was under 50% each time.

Turning to `CNc1cc(-c2nn(CCN3CCCCC3)c3ncccc23)nc2c(C(=O)N[C@H]3C[C@H]3F)cnn12` [I-458], the Kd in assay [1] is 200 to 1000 pM. The inhibition at 10 µM in assay [2] and in assay [3] was under 50% in each case.

For the compound `[2H]C([2H])([2H])Oc1ncccc1Nc1cc(NC)n2ncc(C(=O)N[C@H]3CCC[C@H](O)C3)c2n1` [I-460], the Kd in assay [1] is under 200 pM. The inhibition at 10 µM in assay [2] and in assay [3] was under 50% each time.

With `[2H]C([2H])([2H])Oc1ncccc1Nc1cc(NC)n2ncc(C(=O)N[C@H]3CC[C@H](O)C3)c2n1` [I-462], the dissociation constant Kd in assay [1] was under 200 pM. In addition, the inhibition at 10 µM in assay [2] and in assay [3] was under 50% throughout.

In turn, `CNc1cc(Nc2cccnc2OC2CC2)nc2c(C(=O)N[C@@H]3CCC[C@H]3O)cnn12` [I-465, 5-((2-cyclopropoxypyridin-3-yl)amino)-N-((1R,2R)-2-hydroxycyclopentyl)-7-(methylamino)pyrazolo[1,5-a]pyrimidine-3-carboxamide] had a dissociation constant (Kd) in assay [1] of 200 to 1000 pM. Also, the “Tyk2 JH1% Inhibition @ 10 μM” value in assay [2] is reported as “A (percent inhibition at 10 μM lower than 50)”. For the same compound, the “JAK2 JH1% Inhibition @ 10 μM” value in assay [3] is “A (percent inhibition at 10 μM lower than 50)”.

In turn, `CNc1cc(Nc2cccnc2OC2CC2)nc2c(C(=O)N[C@H]3CCC[C@@H]3O)cnn12` [I-466, 5-((2-cyclopropoxypyridin-3-yl)amino)-N-((1S,2S)-2-hydroxycyclopentyl)-7-(methylamino)pyrazolo[1,5-a]pyrimidine-3-carboxamide] had a Kd in assay [1] of 200 to 1000 pM. For the same compound, the inhibition at 10 µM in assay [2] and in assay [3] was under 50% each time.

Regarding `CNc1cc(Nc2cccnc2OC)nc2c(C(=O)N[C@H]3CC[C@H](O)C3)cnn12` [I-467], the dissociation constant Kd in assay [1] was 200 to 1000 pM. The inhibition at 10 µM in assay [2] and in assay [3] was under 50% each time.

Consider `CNc1cc(Nc2cccnc2OC)nc2c(C(=O)NCCC3(O)CC3)cnn12` [I-468, N-(2-(1-hydroxycyclopropyl)ethyl)-5-((2-methoxypyridin-3-yl)amino)-7-(methylamino)pyrazolo[1,5-a]pyrimidine-3-carboxamide], for which the equilibrium dissociation constant (Kd) in assay [1] lay within 200 to 1000 pM. The inhibition at 10 µM in assay [2] and in assay [3] was under 50% throughout.

Take `CNc1cc(Nc2cccnc2OC2CC2)nc2c(C(=O)NCCC3(O)CC3)cnn12` [I-469, 5-((2-cyclopropoxypyridin-3-yl)amino)-N-(2-(1-hydroxycyclopropyl)ethyl)-7-(methylamino)pyrazolo[1,5-a]pyrimidine-3-carboxamide]: in assay [1], the Kd is 1000 to 10000 pM. For the same compound, the inhibition at 10 µM in assay [2] and in assay [3] was under 50% each time.

Consider `[2H]C([2H])([2H])Oc1ncccc1Nc1cc(NC)n2ncc(C(=O)NCCC3(O)CC3)c2n1` [I-470, N-(2-(1-hydroxycyclopropyl)ethyl)-5-((2-(methoxy-d3)pyridin-3-yl)amino)-7-(methylamino)pyrazolo[1,5-a]pyrimidine-3-carboxamide], for which, in assay [1], the Kd is under 200 pM. Further, the inhibition at 10 µM in assay [2] and in assay [3] was under 50% in each case.

Compound `CNc1cc(Nc2cccn(C3CCCN(C)C3)c2=O)nc2c(C(=O)NC3CC3)cnn12` (stereo not drawn) [I-471] came in with a Kd in assay [1] of 200 to 1000 pM. For the same compound, the inhibition at 10 µM in assay [2] and in assay [3] was under 50% each time.

Take `CNc1cc(Nc2cccn(CCOC3CC3)c2=O)nc2c(C(=O)N[C@@H]3CC[C@H]3O)cnn12` [I-472, 5-((1-(2-cyclopropoyethyl)-2-oxo-1,2-dihydropyridin-3-yl)amino)-N-(2-hydroxycyclobutyl)-7-(methylamino)pyrazolo[1,5-a]pyrimidine-3-carboxamide]: the Kd in assay [1] is 200 to 1000 pM. For the same compound, the inhibition at 10 µM in assay [2] and in assay [3] was under 50% each time.

For `CNc1cc(Nc2cccn(CCOC3CC3)c2=O)nc2c(C(=O)N[C@@H]3CC[C@@H]3O)cnn12` [I-473], the Kd in assay [1] was in the range of 200 to 1000 pM. For the same compound, the inhibition at 10 µM in assay [2] and in assay [3] was under 50% in each case.

Consider `CNc1cc(Nc2cccn([C@H]3CCCOC3)c2=O)nc2c(C(=O)N[C@@H]3C[C@@H]3F)cnn12` [I-475], for which the equilibrium dissociation constant (Kd) in assay [1] was under 200 pM. Also, the inhibition at 10 µM in assay [2] and in assay [3] was under 50% each time.

Take `CNc1cc(Nc2cccnc2OC)nc2c(C(=O)NC(C)(C)C#N)cnn12` [I-476, N-(2-cyanopropan-2-yl)-5-((2-methoxypyridin-3-yl)amino)-7-(methylamino)-pyrazolo[1,5-a]pyrimidine-3-carboxamide]: the Kd in assay [1] is under 200 pM. Moreover, the inhibition at 10 µM in assay [2] and in assay [3] was under 50% each time.

For the compound `CCCCn1cc(-c2cc(NC)n3ncc(C(=O)NC4CC4)c3n2)c2cccnc21` [I-477], in assay [1], the dissociation constant (Kd) lay in the range of 200 to 1000 pM. Moreover, the inhibition at 10 µM in assay [2] and in assay [3] was under 50% throughout.

Consider `CCCCn1cc(-c2cc(NC)n3ncc(C(=O)N[C@@H]4C[C@@H]4F)c3n2)c2cccnc21` [I-478, 5-(1-butyl-1H-pyrrolo[2,3-b]pyridine-3-yl)-N-((1R,2S)-2-fluorocyclopropyl)-7-(methylamino)pyrazolo[1,5-a]pyrimidine-3-carboxamide], for which, in assay [1], the Kd was 200 to 1000 pM. Moreover, the inhibition at 10 µM in assay [2] and in assay [3] was under 50% in each case.

Compound `CNc1cc(-c2nn(CCN3CCN(C)CC3)c3ncccc23)nc2c(C(=O)NC3CC3)cnn12` [I-479] yielded a Kd in assay [1] of 1000 to 10000 pM. The inhibition at 10 µM in assay [2] and in assay [3] was under 50% in each case.

Compound `CNc1cc(-c2nn(CCN3CCN(C)CC3)c3ncccc23)nc2c(C(=O)N[C@H]3C[C@H]3F)cnn12` [I-480] came in with a dissociation constant Kd in assay [1] of 200 to 1000 pM. Besides, the inhibition at 10 µM in assay [2] and in assay [3] was under 50% each time.

`CNc1cc(Nc2cccc(N3CC[C@@H](OC)C3)n2)nc2c(C(=O)NC3CC3)cnn12` [I-481] yielded a Kd in assay [1] of 200 to 1000 pM. For the same compound, the inhibition at 10 µM in assay [2] and in assay [3] was under 50% each time.

Compound `CNc1cc(Nc2cccc(N3CC[C@@H](OC)C3)n2)nc2c(C(=O)NC3CC3)cnn12` [I-482] displayed a Kd in assay [1] of 200 to 1000 pM. Also, in assay [2], the “Tyk2 JH1% Inhibition @ 10 μM” value is recorded as “A (percent inhibition at 10 μM lower than 50)”. The “JAK2 JH1% Inhibition @ 10 μM” value in assay [3] is “A (percent inhibition at 10 μM lower than 50)”.

As to `CNc1cc(Nc2cccnc2OC)nc2c(C(=O)NC[C@@H](C)CO)cnn12` [I-484], the dissociation constant (Kd) in assay [1] is under 200 pM. Besides, the inhibition at 10 µM in assay [2] and in assay [3] was under 50% each time.

In turn, `CNc1cc(Nc2cccn([C@H]3CCC[C@@H]3OC)c2=O)nc2c(C(=O)N[C@@H]3C[C@@H]3F)cnn12` [I-485] displayed a dissociation constant (Kd) in assay [1] of 200 to 1000 pM. For the same compound, the “Tyk2 JH1% Inhibition @ 10 μM” value in assay [2] was “A (percent inhibition at 10 μM lower than 50)”. Moreover, in assay [3], the “JAK2 JH1% Inhibition @ 10 μM” value is “A (percent inhibition at 10 μM lower than 50)”.

On to `CNc1cc(Nc2cccn([C@@H]3CCC[C@H]3OC)c2=O)nc2c(C(=O)N[C@@H]3C[C@@H]3F)cnn12` [I-486], for which the Kd in assay [1] was in the range of 200 to 1000 pM. Moreover, the inhibition at 10 µM in assay [2] and in assay [3] was under 50% in each case.
